# Reference: patent US20230051589A1, “COMPOUNDS AND COMPOSITIONS FOR TREATING CONDITIONS ASSOCIATED WITH NLRP ACTIVITY” (Novartis AG, priority 2018, published 2023)
# Test system: IL-1β production in PMA-differentiated THP-1 cells
# Test: IL-1β production in PMA-differentiated THP-1 cells stimulated with gramicidin (hTHP-1 assay, 2% fetal bovine serum; Procedures 1-3)
# Format: cell-based, human
# Conditions: Homo sapiens, THP-1, Table B3; hTHP-1 assay containing 2% fetal bovine serum, gramicidin stimulation, IL-1β readout; read-out: hTHP-1 IC50
# Procedure, shortened: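 PMA-primed THP-1 cells (20 ng/ml PMA, 16-18 h) in RPMI with 2% FBS were pre-incubated with compounds for 1 h, from 100 μM downward in 3-fold steps (0.37% DMSO final), then stimulated with 5 μM gramicidin for 2 h. IL-1β in the supernatant was quantified by HTRF.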
row,IC50,Compound
1,0.2 to 1 µM,"CC(C)n1nc(S(N)(=O)=NC(=O)Nc2c3c(cc4c2C(=O)CC4)CCC3)cc1C(C)(C)O (stereo not drawn) [Example 740, 5-(2-Hydroxypropan-2-yl)-1-isopropyl-N′-((3-oxo-1,2,3,5,6,7-hexahydro-s-indacen-4-yl)carbamoyl)-1H-pyrazole-3-sulfonimidamide]"
2,1 to 5 µM,"CN(C)C1CCc2cc(S(N)(=O)=NC(=O)Nc3c4c(cc5c3CCC5)CCC4)sc2C1 (stereo not drawn) [Example 752, 6-(Dimethylamino)-N′-((1,2,3,5,6,7-hexahydro-s-indacen-4-yl)carbamoyl)-4,5,6,7-tetrahydrobenzo[b]thiophene-2-sulfonimidamide]"
3,5 to 30 µM,"NS(=O)(=NC(=O)Nc1c2c(cc3c1CCC3)CCC2)c1ccc(-c2ccccc2)s1 (stereo not drawn) [Example 759, N′-((1,2,3,5,6,7-hexahydro-s-indacen-4-yl)carbamoyl)-5-phenylthiophene-2-sulfonimidamide]"

# Same assay, conditions: Homo sapiens, THP-1, hTHP-1 assay containing 2% fetal bovine serum, Table B2, class symbols; read-out: IC50
row,Compound,IC50
1,N[S@@](=O)(=NC(=O)Nc1c2c(cc3c1CCC3)CCC2)c1ccc([C@@H]2CCCN2)s1 [Compound 921c],1 to 5 µM
2,"C/C=C/c1c2c(c(NC(=O)N=S(N)(=O)c3cc(C(C)(C)O)n(-c4ccccc4)n3)c3c1CCC3)CCC2 (stereo not drawn) [Example 459, (E)-5-(2-hydroxypropan-2-yl)-1-phenyl-N′-((8-(prop-1-en-1-yl)-1,2,3,5,6,7-hexahydro-s-indacen-4-yl)carbamoyl)-1H-pyrazole-3-sulfonimidamide]",1 to 5 µM

# Next, values leading:
row,IC50,Compound
1,0.2 to 1 µM,"NS(=O)(=NC(=O)Nc1c2c(cc3c1CCC3)CCC2)c1cnn2c1OC[C@H](O)C2 (stereo partly drawn) [Example 441, (6R)-N′-((1,2,3,5,6,7-hexahydro-s-indacen-4-yl)carbamoyl)-6-hydroxy-6,7-dihydro-5H-pyrazolo[5,1-b][1,3]oxazine-3-sulfonimidamide]"
2,1 to 5 µM,"CC(OC(F)F)c1ccc(S(N)(=O)=NC(=O)Nc2c3c(cc4c2CCC4)CCC3)cc1 (stereo not drawn) [compound 452, 4-(1-(Difluoromethoxy)ethyl)-N′-((1,2,3,5,6,7-hexahydro-s-indacen-4-yl)carbamoyl)benzenesulfonimidamide]"
3,0.2 to 1 µM,"CNC(C)(C)c1ccc(S(N)(=O)=NC(=O)Nc2c3c(cc4c2CCC4)CCC3)c(F)c1 (stereo not drawn) [Example 451, 2-Fluoro-N′-(1,2,3,5,6,7-hexahydros-indacen-4-ylcarbamoyl)-4-(2-(methylamino)propan-2-yl)benzenesulfonimidamideonimidamide]"
4,1 to 5 µM,"CN(C)Cc1cnc(S(N)(=O)=NC(=O)Nc2c3c(cc4c2CCC4)CCC3)c(F)c1 (stereo not drawn) [Example 497, 5-((Dimethylamino)methyl)-3-fluoro-N′-((1,2,3,5,6,7-hexahydro-s-indacen-4-yl)carbamoyl)pyridine-2-sulfonimidamide]"
5,0.008 to 0.04 µM,C[C@](O)(CO)c1ncc(S(N)(=O)=NC(=O)Nc2c3c(cc4c2CC4)CCC3)s1 (stereo partly drawn) [919f^]
6,0.2 to 1 µM,NS(=O)(=NC(=O)Nc1c2c(cc3c1CCC3)CCC2)c1ccc([C@H]2CCCN2)s1 (stereo partly drawn) [Compound 921e]

# Same assay, conditions: Homo sapiens, THP-1, hTHP-1 assay containing 2% fetal bovine serum, Table B2, given as bound; read-out: IC50
row,IC50,Compound
1,> 30 µM,"NS(=O)(=NC(=O)Nc1c2c(cc3c1CCC3)CCC2)c1ccc(C2CCCC2)nc1 (single isomer, unassigned) [Example 586, (S) or (R)-6-cyclopentyl-N′-((1,2,3,5,6,7-hexahydro-s-indacen-4-yl)carbamoyl)pyridine-3-sulfonimidamide]"
2,> 30 µM,"CC(C)(O)c1cnc(S(N)(=O)=NC(=O)Nc2c3c(cc4c2CCC4=O)CCC3)s1 (single isomer, unassigned) [Example 588, (S) or (R)-5-(2-hydroxypropan-2-yl)-N′-((1-oxo-1,2,3,5,6,7-hexahydro-s-indacen-4-yl)carbamoyl) thiazole-2-sulfonimidamide]"
3,> 30 µM,"CC(OC(F)F)c1ccc(S(N)(=O)=NC(=O)Nc2c3c(cc4c2CCC4)CCC3)cc1 (mixture of isomers) [Example 639, (R,S) and (S,S)-4-(1-(difluoromethoxy)ethyl)-N′-((1,2,3,5,6,7-hexahydro-s-indacen-4-yl)carbamoyl) benzenesulfonimidamide (mixture of two isomers)]"

# Same assay, conditions: Table B1; hTHP-1 assay containing 2% fetal bovine serum, gramicidin stimulation, IL-1β readout; read-out: hTHP-1 IC50 (average)
row,Compound,IC50
1,"CC(C)(O)c1csc(S(N)(=O)=NC(=O)Nc2c3c(cc4c2OCC4)CCC3)n1 (single isomer, unassigned) [Example 354, (R) or (S)-4-(2-hydroxy-propan-2-yl)-N′-((3,5,6,7-tetrahydro-2H-indeno-[5,6-b]furan-8-yl)carbam-oyl)thiazole-2-sulfonimid-amide]",0.008 to 0.04 µM
2,"[2H]C1([2H])CCc2c1cc1c(c2NC(=O)N=S(N)(=O)c2cnc(C(C)(C)O)s2)CCC1([2H])[2H] (single isomer, unassigned) [Example 423, (R) or (S)-N′-((1,2,3,5,6,7-hexahydro-s-indacen-4-yl-1,1,7,7-d4)carbamoyl)-2-(2-hydroxypropan-2-yl)-thiazole-5-sulfonimidamide]",0.008 to 0.04 µM
3,"C#CCCC(=O)N(C)Cc1ccc(S(N)(=O)=NC(=O)Nc2c3c(cc4c2CCC4)CCC3)cc1 (single isomer, unassigned) [Example 313, (R) or (S)-N-(4-(N′-((1,2,3,5,6,7-hexahydro-s-indacen-4-yl)carbamoyl)-sulfamidimidoyl)benzyl)-N-methylpent-4-ynamide]",1 to 5 µM

# Second part, the compound after the results:
row,IC50,Compound
1,1 to 5 µM,"CN1CCc2cc(S(N)(=O)=NC(=O)Nc3c4c(cc5c3CCC5)CCC4)ccc2C1 (single isomer, unassigned) [Example 395, (R) or (S)-N′-((1,2,3,5,6,7-hexahydro-s-indacen-4-yl)carbamoyl)-2-methyl-1,2,3,4-tetrahydroisoquin-oline-6-sulfonimidamide]"
2,0.04 to 0.2 µM,"CC(c1ccc(S(N)(=O)=NC(=O)Nc2c3c(cc4c2CCC4)CCC3)cc1)N(C)C (stereo not drawn) [Example 266, 4-(1-(Dimethylamino)ethyl)-N′-(1,2,3,5,6,7-hexahydro-s-indacen-4-ylcarbamoyl)-benzenesulfonimidamide]"

# Same assay, conditions: Table B3; hTHP-1 assay containing 2% fetal bovine serum, gramicidin stimulation, IL-1β readout; read-out: hTHP-1 IC50
row,IC50,Compound
1,0.04 to 0.2 µM,"CCn1ccc(S(N)(=O)=NC(=O)Nc2c3c(cc4c2CC4)CCC3)n1 (single isomer, unassigned) [Example 825]"
2,0.2 to 1 µM,"CC(C)c1cnc(S(N)(=O)=NC(=O)Nc2c3c(cc4c2CCC4)CCC3)c(F)c1 (single isomer, unassigned) [Example 811, (R) or (S)-3-fluoro-N′-((1,2,3,5,6,7-hexahydro-s-indacen-4-yl)carbamoyl)-5-isopropylpyridine-2-sulfonimidamide]"
3,5 to 30 µM,"CC(C)(O)c1sc(S(N)(=O)=NC(=O)Nc2c3c(cc4c2CCC4)CCC3)cc1-c1ccccc1 (single isomer, unassigned) [Example 801, (S) or (R)-N′-((1,2,3,5,6,7-hexahydro-s-indacen-4-yl)carbamoyl)-5-(2-hydroxypropan-2-yl)-4-phenylthiophene-2-sulfonimidamide]"

# Same assay, conditions: hTHP-1 assay containing 2% fetal bovine serum, Table B2, class symbols; read-out: IC50
row,Compound,IC50
1,"CC(C)(O)c1cc(F)c(S(N)(=O)=NC(=O)Nc2c3c(cc4c2C(=O)CC4)CCC3)s1 (single isomer, unassigned) [Example 539, (R) or (S)-3-fluoro-5-(2-hydroxypropan-2-yl)-N′-((3-oxo-1,2,3,5,6,7-hexahydro-s-indacen-4-yl)carbamoyl) thiophene-2-sulfonimidamide]",0.04 to 0.2 µM
2,"CN(C)C(c1ccc(S(N)(=O)=NC(=O)Nc2c3c(cc4c2CCC4)CCC3)cc1)C1CC1 (single isomer, unassigned) [Example 661]",0.2 to 1 µM
3,"CC(C)c1cc2c(cc1NC(=O)N=S(N)(=O)c1cnc(C(C)(C)O)s1)CCC2 (single isomer, unassigned) [Example 527, (S) or (R)-2-(2-hydroxypropan-2-yl)-N′-((6-isopropyl-2,3-dihydro-1H-inden-5-yl)carbamoyl) thiazole-5-sulfonimidamide]",1 to 5 µM

# The next lines start with the values.
row,IC50,Compound
1,1 to 5 µM,"NS(=O)(=NC(=O)Nc1c2c(cc3c1CC3)CCC2)c1cnn2c1OCCC2 (single isomer, unassigned) [Example 547, (S) or (R)-N′-((2,4,5,6-tetrahydro-1H-cyclobuta[f]inden-3-yl)carbamoyl)-6,7-dihydio-5H-pyrazolo[5,1-b][1,3]oxazine-3-sulfonimidamide]"
2,0.04 to 0.2 µM,"CC(C)(O)c1nc(S(N)(=O)=NC(=O)Nc2c3c(cc4c2CCC4)CCC3)cs1 (single isomer, unassigned) [Example 557, (R) or (S)-N′-((1,2,3,5,6,7-hexahydro-s-indacen-4-yl)cartoamoyl)-2-(2-hydroxypropan-2-yl)thiazole-4-sulfoni midamide]"
3,0.2 to 1 µM,"CN(C)Cc1ccc(S(N)(=O)=NC(=O)Nc2c3c(cc4c2CC4)CCC3)cc1 (single isomer, unassigned) [Example 580, (R) or (S)-4-((dimethylamino)methyl)-N′-((2,4,5,6-tetrahydro-1H-cyclobuta[f]inden-3 - yl)carbamoyl) benzenesulfonimidamide]"
4,0.2 to 1 µM,"CN(C)C(c1ccc(S(N)(=O)=NC(=O)Nc2c3c(cc4c2CCC4)CCC3)cc1)C(F)F (single isomer, unassigned) [Example 644, (R,R) or (S,R)-4-(-1-(dimethylamino)-2,2-difluoroethyl)-N′-((1,2,3,5,6,7-hexahydro-s-indacen-4-yl)carbamoyl) benzenesulfonimidamide]"
5,0.2 to 1 µM,"CN(C)Cc1ccc(S(N)(=O)=NC(=O)Nc2c3c(cc4c2CCC4)CCC3)cn1 (single isomer, unassigned) [Example 617, (R) or (S)-6-((dimethylamino)methyl)-N′-((1,2,3,5,6,7-hexahydro-s-indacen-4-yl)carbamoyl) pyridine-3-sulfonimidamide]"
